According to US20250041176A1, “An antimicrobial composition” (Conopco, Inc., d/b/a UNILEVER, priority 2021, published 2025):

test system: C. acnes (ATCC 6919); experiment: Growth of C. acnes, MIC plate method; type: cell-based, Cutibacterium acnes; conditions: actives at the stated % in 20 ml agar; 10 μl inoculum spotted; 37° C. 4-5 days anaerobically
Description: The actives whether used singly or in combination as shown in Table-1 were tested for growth of C. acnes using the invitro protocol as given below:
Protocol used for Measuring Growth (MIC Plate Method)
Working Cultures of Test Organisms
For C. acnes (ATCC 6919): Approximately 4-5 days prior to testing, a sterile plate of […] (RCM Agar) was inoculated with the challenge bacterial test organism and incubated at 37° C.±1° C. for 4-5 days anaerobically.
Test Organism Suspensions (To Be Prepared Just Before Use)
A suspension of the challenge microorganism was prepared in sterile 0.85% saline and a cell density were adjusted at 620 nm to achieve a challenge suspension concentration of approximately 1.0×10^8 colony forming units per ml for bacteria
Preparation of Sample Concentrations
• a) Aliquot of samples were taken to achieve required test concentration in 20 ml of agar system. • b) Test samples were initially dissolved in 1 ml of sample diluent (sterile d/water or solvent) to get test solutions • c) The test solutions were added to 20 ml sterile molten agar maintained at a temperature of 45-50° C., mixed thoroughly and poured into petri plates. The agar was allowed to solidify at room temperature. • d) On solidification, 10μl inoculum of prepared test culture was spotted onto respective agar surfaces in duplicates • e) The inoculated plates were allowed to stand at room temperature until the inoculum spots had been absorbed into the agar. The plates were incubated at 37° C. ±1° C. for 4-5 days anaerobically. After completion of incubation, plates were checked for growth and no growth to determine the MIC value.

Structure (SMILES) | Observation (growth of C. acnes)
CCC(C)c1ccc(O)cc1 (stereo not drawn) [C, 4 sec butyl phenol] | Growth
Oc1ccc(C2CCCC2)cc1 [E, 4 cyclo pentyl phenol] | Growth
CCCCCCc1ccc(O)cc1O [Example A, 4 hexyl resorcinol] | Growth
